{"source": "patent US8455667B2", "about": "“Duloxetine compositions in the form of a powder for suspension in a liquid” (priority 2005, dated 2013)", "origin": "cited, not measured here", "key": {"histaminergic receptors": {"system": "histaminergic receptors", "details": "in vitro"}, "cholinergic receptors": {"system": "cholinergic receptors", "details": "in vitro"}, "adrenergic receptors": {"system": "adrenergic receptors", "details": "in vitro"}, "dopaminergic receptors": {"system": "dopaminergic receptors", "details": "in vitro"}, "[1]": {"details": "in vivo"}}}
{"smiles": "CNCC[C@H](Oc1cccc2ccccc12)c1cccs1", "note": "[Duloxetine, (S)-N-methyl-3-(1-naphthyloxy)-3-(2-thienyl) propan-1-amine]", "values": [{"measurement": "affinity for histaminergic receptors", "setting": "histaminergic receptors", "result": "no significant affinity"}, {"measurement": "affinity for cholinergic receptors", "setting": "cholinergic receptors", "result": "no significant affinity"}, {"measurement": "dosage hydrolyzed to 1-naphthol", "setting": "pH 1.0, within one hour", "result": 50, "unit": "%"}, {"measurement": "dosage degraded to 1-Naphthol", "setting": "pH 2.0, in one hour", "result": 10, "unit": "%"}, {"measurement": "time for 10% degradation", "setting": "pH 4.0", "result": "up to 63 hours"}, {"measurement": "affinity for adrenergic receptors", "setting": "adrenergic receptors", "result": "no significant affinity"}, {"measurement": "inhibition of monoamine oxidase (MAO)", "setting": "monoamine oxidase (MAO)", "result": "does not inhibit"}, {"measurement": "affinity for dopaminergic receptors", "setting": "dopaminergic receptors", "result": "no significant affinity"}, {"measurement": "mean plasma elimination half-life", "setting": "[1]", "result": 12.1, "unit": "h"}]}
